For one data set, the target named is GTPase KRas (Homo sapiens, UniProt P01116, G12C). Nature of the data set: Inhibition of KRAS G12C mutant in human NCI-H358 cells assessed as reduction in ERK phosphorylation measured after 3 hrs by Western blot analysis. The class given is cell-based. A general note: In western blotting, separated proteins are transferred to a membrane and probed.
Data set [1] has as its system GTPase KRas (Homo sapiens), P01116 [G12C]. The data set is described as follows: Binding affinity to KRAS G12C mutant (unknown origin) assessed as covalent modification at 5 uM after 3 hrs by LC-MS analysis relative to control.
Data set [2] shares this test system. Nature of the data set: Binding affinity to KRAS G12C mutant (unknown origin) assessed as covalent modification at 3 uM after 15 mins by LC-MS analysis relative to control.
Data set [3] in a line: Plasma concentration in CD-1 mouse at 100 mg/kg, ip measured after 3 hrs. The class given is ADME, organism-based.
Data set [4] can be described thus: Plasma concentration in CD-1 mouse at 100 mg/kg, ip measured after 1 hr. The class given is ADME, organism-based.
In data set [5] the test system is MIA PaCa-2. The data set is described as follows: Antitumor activity against human MIAPaCa2 cells xenografted in nude-Fox1nu mouse assessed as reduction in tumor volume at 30 to 100 mg/kg, ip administered once daily for 17 days measured three times a week during compound dosing. The class given is functional, organism-based. On the technique in general: In xenograft studies the graft and the host belong to different species.

For data set [6], the system named is Mus musculus. Nature of the data set: Ex vivo inhibition of KRAS G12C mutant in human MIAPaCa2 cells xenografted in nude-Fox1nu mouse assessed as target engagement in tumor at 30 to 100 mg/kg, ip administered once daily for 1 day measured 3 to 24 hrs post dose relative to control. Details: scale not given: the % may be the effect or the level left. It is filed as functional.

The nature of data set [7]: Volume of distribution at steady state in CD-1 mouse at 3 mg/kg, iv. The note with it: in vivo, read-out: Vdss. The class given is ADME, organism-based.
The nature of data set [8]: Plasma concentration in CD-1 mouse at 15 mg/kg, ip measured after 0.5 hrs. The class given is ADME, organism-based.
Data set [9] concerns MDR1. The data set is described as follows: Apparent permeability across basolateral to apical side in pig LLC-PK1 cells expressing MDR1 at 1 uM. It is filed as ADME, cell-based, Sus scrofa.
Data set [10] can be described thus: Plasma concentration in CD-1 mouse at 50 mg/kg, ip measured after 0.5 hrs. It is filed as ADME, organism-based.
Data set [11] can be described thus: Toxicity in nude-Fox1nu mouse xenografted with human MIAPaCa2 cells assessed as body weight loss at 30 to 100 mg/kg, ip administered once daily for 17 days measured 2 times a week during compound dosing. It is filed as organism-based. The note with it: in vivo, 408 h.
Data set [12] can be described thus: Plasma concentration in CD-1 mouse at 15 mg/kg, ip measured after 3 hrs. The class given is ADME, organism-based. The note with it: in vivo, BLD = below limit of detection.
The test system of data set [13] is MDR1. Nature of the data set: Apparent permeability across apical to basolateral side in pig LLC-PK1 cells expressing MDR1 at 1 uM. It is filed as ADME, cell-based, Sus scrofa.
The nature of data set [14]: Tmax in CD-1 mouse at 100 mg/kg, po. The class given is ADME, organism-based. The note with it: in vivo.
Data set [15] can be described thus: Protein binding in CD-1 mouse plasma at 1 uM by equilibrium dialysis method. It is filed as ADME, cell-free. The note with it: read-out: PPB (converted). (In equilibrium dialysis only unbound substance equilibrates across the membrane.)
Data set [16] is described as follows: Plasma concentration in CD-1 mouse at 100 mg/kg, ip measured after 0.5 hrs. The class given is ADME, organism-based.
The nature of data set [17]: Cmax in CD-1 mouse at 100 mg/kg, po. The arrangement: dose 100 mg/kg, route oral. The note with it: in vivo. It is filed as ADME, organism-based.
Data set [18] can be described thus: Plasma concentration in CD-1 mouse at 100 mg/kg, ip measured after 6 hrs. The class given is ADME, organism-based.
Data set [19] is described as follows: Plasma concentration in CD-1 mouse at 50 mg/kg, ip measured after 3 hrs. It is filed as ADME, organism-based.
The nature of data set [20]: Plasma concentration in CD-1 mouse at 15 mg/kg, ip measured after 1 hr. The class given is ADME, organism-based.
Data set [21] concerns MIA PaCa-2. The data set is described as follows: Antitumor activity against human MIAPaCa2 cells xenografted in nude-Fox1nu mouse assessed as tumor regression at 30 to 100 mg/kg, ip administered once daily for 5 days. It is filed as functional, organism-based.
Data set [22] is described as follows: Toxicity in nude-Fox1nu mouse xenografted with human MIAPaCa2 cells assessed as adverse effect at 30 to 100 mg/kg, ip administered once daily for 17 days measured during compound dosing. It is filed as organism-based. The note with it: in vivo, 408 h.
The test system of data set [23] is Mus musculus. Nature of the data set: Ex vivo inhibition of KRAS G12C mutant in human MIAPaCa2 cells xenografted in nude-Fox1nu mouse assessed as target engagement in tumor at 30 to 100 mg/kg, ip administered once daily for 5 days measured 3 to 24 hrs post dose relative to control. The arrangement: scale not given: the % may be the effect or the level left. It is filed as functional.

Data set [24] can be described thus: Clearance in CD-1 mouse at 3 mg/kg, iv. It is filed as ADME, organism-based. The note with it: in vivo.
The nature of data set [25]: Half life in CD-1 mouse at 3 mg/kg, iv. The class given is ADME, organism-based. The note with it: in vivo.
A short description of data set [26]: AUC (infinity) in CD-1 mouse at 100 mg/kg, po. The class given is ADME, organism-based. Details: dose 100 mg/kg, time infinity, route oral. The note with it: in vivo.
Data set [27] in a line: Oral bioavailability in CD-1 mouse at 100 mg/kg. The note with it: in vivo. It is filed as ADME, organism-based.
A short description of data set [28]: Plasma concentration in CD-1 mouse at 50 mg/kg, ip measured after 1 hr. The class given is ADME, organism-based.

The structures appear in SMILES notation. Activity calls are given as the source filed them. No cut-off for these calls is given here.

Sequence of GTPase KRas (Homo sapiens), P01116 [G12C] (P01116 whole entry G12C): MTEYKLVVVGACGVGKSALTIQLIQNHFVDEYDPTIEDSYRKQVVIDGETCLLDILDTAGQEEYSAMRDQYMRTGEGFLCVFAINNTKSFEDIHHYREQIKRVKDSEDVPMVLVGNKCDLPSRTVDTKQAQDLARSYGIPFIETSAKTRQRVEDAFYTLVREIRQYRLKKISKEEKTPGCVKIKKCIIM
Sequence of GTPase KRas (P01116 whole entry G12C): as above

With `C=CC(=O)N1CCN(c2ncnc3c2CCN(c2c(C)ccc4[nH]ncc24)C3)CC1`, on GTPase KRas, the IC50 (in general, the concentration needed to halve the response being measured) was greater than 16 µM. For the same compound, the Activity in [1] turned out to be 22%.
Turning to `C=CC(=O)N1CCN(c2ncnc3c2CCN(c2cc(O)cc4ccccc24)C3)CC1`, the IC50 at GTPase KRas was found to be 7.6 µM. Besides, the results for the Activity in data set [1] and in [2] were 99% and 8%, respectively.
As for `C=CC(=O)N1CCN(c2ncnc3c2CCN(c2cccc4ccc(O)cc24)C3)CC1`, the IC50 on GTPase KRas was greater than 16 µM. Also, in data set [1], the Activity turned out to be 0%.
The corresponding values for `C=CC(=O)N1CCN(c2ncnc3c2CCN(c2c(O)cccc2F)C3)CC1` are greater than 16 µM and 2%.
As to `C=CC(=O)N1CCN(c2nc(OC[C@@H]3CCCN3C)nc3c2CCN(c2cc(O)cc4ccccc24)C3)CC1`, the concentration at 3 h turned out to be 1400 ng/mL in data set [3] and 250 ng/mL in data set [19]. Also, the values for the concentration at 1 h in [4], in [20] and in data set [28] were 17000 ng/mL, 970 ng/mL and 2600 ng/mL, respectively. Moreover, the outcome with MIA PaCa-2 [5] and in the data set with MIA PaCa-2 [21] was Active. In addition, the Activity in the data set on Mus musculus [6] is greater than 65%; in data set [11] it was “Non-Toxic”; in data set [22] it was “Non-Toxic”; in the data set on Mus musculus [23], greater than 65%; in data set [2], 84%. In data set [7], the Vd is 0.53 L/kg. Also, the results for the concentration at 0.5 h in [8], in [10] and in data set [16] were 1500 ng/mL, 8300 ng/mL and 26000 ng/mL, respectively. The Papp B→A (in general, the apparent permeability from the basolateral to the apical side of a cell layer) at 1 µM in the data set on MDR1 [9] was 37 ×10⁻⁶ cm/s. Further, in data set [12], the Cp entry is “Bld”. Also, the Papp A→B (as a rule, how fast a substance crosses the layer from the apical side) at 1 µM in the data set with MDR1 [13] is 1.4 ×10⁻⁶ cm/s. The Tmax (commonly the time at which the peak concentration occurs) in data set [14] stood at 60 min. For the same compound, the fraction unbound at 1 µM in data set [15] was 0.05. Moreover, the Cmax (in general, the maximum level reached in the sampled fluid or tissue) in [17] came out at 590 ng/mL. This compound also gave a concentration at 6 h in data set [18] of 1300 ng/mL. Also, the clearance – broadly, the rate of elimination divided by the concentration – in data set [24] turned out to be 46 mL/min/kg. For the same compound, in [25], the half-life (as a rule, how long it takes for the measured level to halve) is 57.6 min. Also, the AUC(0-inf) (as a rule, the area under the concentration-time curve extrapolated to infinity) in data set [26] amounted to 880 ng·h/mL. The bioavailability (in general, dose-corrected exposure relative to a reference, in per cent) in data set [27] was 2.4%.
In the case of `C=CC(=O)N1CCN(c2nc(OCCCN(C)C)nc3c2CCN(c2cc(O)cc4ccccc24)C3)CC1`, the IC50 at GTPase KRas came out at 1.5 µM. Besides, the Activity in data set [2] was 22%.
The corresponding values for `C=CC(=O)N1CCN(c2nc(OCCN(C)C)nc3c2CCN(c2cc(O)cc4ccccc24)C3)CC1` are 1.9 µM and 52%.
Take `C=CC(=O)N1CCN(c2ncnc3c2CCN(c2cccc4ccccc24)C3)CC1`: the IC50 on GTPase KRas is greater than 16 µM. The Activity in [1] came out at 13%.
With `C=CC(=O)N1CCN(c2nc(O[C@@H](C)CN(C)C)nc3c2CCN(c2cc(O)cc4ccccc24)C3)CC1`, the IC50 on GTPase KRas was found to be 0.54 µM. Also, the Activity in data set [2] turned out to be 21%.
In the case of `C=CC(=O)N1CCN(c2ncnc3c2CCN(c2cc(O)ccc2F)C3)CC1`, the IC50 at GTPase KRas was greater than 16 µM. The Activity in data set [1] was found to be 2%.

For the origin of these results see ChEMBL document CHEMBL4325929, “Discovery of Tetrahydropyridopyrimidines as Irreversible Covalent Inhibitors of KRAS-G12C with In Vivo Activity” (ACS Med Chem Lett, 2018).
